Values of other authors as cited in US20080103103A1, “Reagents and methods to treat ocular diseases and infection” (priority 2006, published 2008).

How the values were obtained:
HSV = HSV early onset
adenovirus [1] = test system: adenovirus
adenovirus [2] = test system: adenovirus; remark: listed apart in the source
adenovirus [3] = details: 0.5%
adenovirus [4] = details: 0.2%
adenovirus [5] = details: 3%, ocular application

SMILES: Nc1nc2c(ncn2COCCO)c(=O)[nH]1 [Acyclovir]
- effectiveness against HSV (HSV): effective
- effectiveness against adenovirus (adenovirus [1]): not adenovirus

SMILES: O=C(O[C@@H]1Cc2c(O)cc(O)cc2O[C@@H]1c1cc(O)c(O)c(O)c1)c1cc(O)c(O)c(O)c1 [EGCG, (2R,3R)-2-(3,4,5-Trihydroxyphenyl)-3,4-dihydro-1(2H)-benzopyran-3,5,7-triol 3-(3,4,5-trihydroxybenzoate)]
- activity against adenovirus in vitro (viral load) (adenovirus [2]; in vitro): greatly reducing the viral load
- concentration effective for in vitro cultures (adenovirus [2]; in vitro cultures, adenovirus): 0.005%

SMILES: Nc1ccn(C[C@@H](CO)OCP(=O)(O)O)c(=O)n1 [cidofovir]
- result in animal studies (adenovirus [3]): some positive results
- result in clinical trials (adenovirus [4]): failed

SMILES: CC(=O)OCC(CCn1cnc2cnc(N)nc21)COC(C)=O [famciclovir]
- effectiveness against HSV (HSV): effective
- effectiveness against adenovirus (adenovirus [1]): not adenovirus

SMILES: Nc1nc(O)c2ncn(COC(CO)CO)c2n1 [gancicolovir]
- activity against adenovirus (adenovirus [5]): very minor activity
